Results: US11306101B2 (Celgene Corporation, priority 2019, dated 2022)

Target: T1, CK1α (Homo sapiens, UniProt P48729+Q96SW2)
T1 construct: expressed in transfected cells
Assay: CK1α ePL degradation assay in MDS-L cells
Assay type: cell-based
Conditions: MDS-L cells expressing ePL-tagged CK1α; for DC50: concentration giving 50% CK1α degradation vs DMSO control; for Y: lowest measured CK1α level normalized to DMSO control
In short: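 MDS-L cells treated with compound in a 10-point, 3-fold series from 10 μM to 0.0005 μM at 37° C, 5% CO2 for the indicated times; CK1α measured by InCELL Hunter enzyme-fragment luminescence. Levels normalized to DMSO as percent of control; lowest level reached taken as Y value.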

T1 sequence (P48729 whole entry): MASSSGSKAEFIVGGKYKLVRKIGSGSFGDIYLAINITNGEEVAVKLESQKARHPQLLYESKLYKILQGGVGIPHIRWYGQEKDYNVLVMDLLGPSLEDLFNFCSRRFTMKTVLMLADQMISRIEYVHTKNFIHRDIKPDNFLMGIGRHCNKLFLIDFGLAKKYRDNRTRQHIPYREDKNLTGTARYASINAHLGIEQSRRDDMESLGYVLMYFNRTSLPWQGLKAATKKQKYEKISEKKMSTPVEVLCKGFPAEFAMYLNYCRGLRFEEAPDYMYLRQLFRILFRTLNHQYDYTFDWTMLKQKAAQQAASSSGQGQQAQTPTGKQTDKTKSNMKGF
T1 sequence (Q96SW2 whole entry): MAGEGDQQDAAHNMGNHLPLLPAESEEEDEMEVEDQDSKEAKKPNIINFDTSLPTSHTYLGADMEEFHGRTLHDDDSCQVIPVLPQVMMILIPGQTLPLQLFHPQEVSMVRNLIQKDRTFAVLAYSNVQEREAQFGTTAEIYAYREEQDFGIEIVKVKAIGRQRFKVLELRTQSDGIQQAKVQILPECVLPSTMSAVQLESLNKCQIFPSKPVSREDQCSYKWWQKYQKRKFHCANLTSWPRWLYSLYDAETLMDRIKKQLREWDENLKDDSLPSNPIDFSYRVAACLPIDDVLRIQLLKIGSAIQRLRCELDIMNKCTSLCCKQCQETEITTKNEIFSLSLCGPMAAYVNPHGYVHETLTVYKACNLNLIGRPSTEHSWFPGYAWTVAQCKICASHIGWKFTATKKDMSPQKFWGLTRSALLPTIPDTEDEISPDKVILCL
T1 sequence (Q16531 whole entry partner): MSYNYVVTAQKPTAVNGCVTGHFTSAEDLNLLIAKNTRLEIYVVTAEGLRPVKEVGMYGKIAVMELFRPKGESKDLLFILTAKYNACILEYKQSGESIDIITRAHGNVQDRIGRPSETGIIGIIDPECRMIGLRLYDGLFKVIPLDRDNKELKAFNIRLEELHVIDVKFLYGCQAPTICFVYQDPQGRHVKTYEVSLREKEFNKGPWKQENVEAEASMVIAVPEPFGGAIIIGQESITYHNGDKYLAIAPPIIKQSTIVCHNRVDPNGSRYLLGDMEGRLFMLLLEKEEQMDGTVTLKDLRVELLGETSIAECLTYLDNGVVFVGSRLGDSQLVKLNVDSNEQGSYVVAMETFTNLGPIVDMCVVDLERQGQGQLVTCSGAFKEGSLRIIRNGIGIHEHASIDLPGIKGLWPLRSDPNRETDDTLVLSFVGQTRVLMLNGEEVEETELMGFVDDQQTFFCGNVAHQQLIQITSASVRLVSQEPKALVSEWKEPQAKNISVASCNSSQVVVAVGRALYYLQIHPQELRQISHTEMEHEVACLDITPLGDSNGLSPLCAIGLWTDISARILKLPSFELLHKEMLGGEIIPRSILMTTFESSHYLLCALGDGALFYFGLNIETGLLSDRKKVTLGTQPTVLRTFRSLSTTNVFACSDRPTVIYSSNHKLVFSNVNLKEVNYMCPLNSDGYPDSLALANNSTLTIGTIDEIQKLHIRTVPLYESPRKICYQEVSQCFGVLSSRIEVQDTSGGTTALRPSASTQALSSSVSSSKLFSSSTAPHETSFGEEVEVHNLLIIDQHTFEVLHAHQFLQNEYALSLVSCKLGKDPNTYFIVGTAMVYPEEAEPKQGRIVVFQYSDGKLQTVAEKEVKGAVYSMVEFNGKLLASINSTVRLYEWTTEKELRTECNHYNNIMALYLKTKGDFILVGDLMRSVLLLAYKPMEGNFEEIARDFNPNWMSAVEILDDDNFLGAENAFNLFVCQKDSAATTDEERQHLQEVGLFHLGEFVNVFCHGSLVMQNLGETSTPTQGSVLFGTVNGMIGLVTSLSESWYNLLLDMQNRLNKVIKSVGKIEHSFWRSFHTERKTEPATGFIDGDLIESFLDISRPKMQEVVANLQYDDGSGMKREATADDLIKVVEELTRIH

| Structure (SMILES) | DC50 [nM] | Y |
| --- | --- | --- |
| O=C1CCC(N2Cc3c(ccc(C(=O)N[C@H](c4ccccc4C(F)(F)F)C(F)(F)F)c3F)C2=O)C(=O)N1 (stereo partly drawn) [Example 98, 2-(2,6-dioxopiperidin-3-yl)-4-fluoro-1-oxo-N-((R)-2,2,2-trifluoro-1-(2-(trifluoromethyl)phenyl)ethyl)isoindoline-5-carboxamide] | < 100 | * (a Y value (shown as *) of 0<Y≤20%) |
| O=C1CCC(N2Cc3cc(C(=O)N[C@H](c4ccccc4F)C(F)(F)F)c(F)cc3C2=O)C(=O)N1 (stereo partly drawn) [Example 99, 2-(2,6-dioxopiperidin-3-yl)-6-fluoro-1-oxo-N-((R)-2,2,2-trifluoro-1-(2-fluorophenyl)ethyl)isoindoline-5-carboxamide] | 100 to 500 | ** (a Y value (shown as**) of 20%<Y≤35%) |
| O=C1CCC(N2Cc3c(ccc(C(=O)N[C@H](c4ccccc4F)C(F)(F)F)c3F)C2=O)C(=O)N1 (stereo partly drawn) [Example 100, 2-(2,6-dioxopiperidin-3-yl)-4-fluoro-1-oxo-N-((R)-2,2,2-trifluoro-1-(2-fluorophenyl)ethyl)isoindoline-5-carboxamide] | 100 to 500 | * (a Y value (shown as *) of 0<Y≤20%) |
| O=C1CCC(N2Cc3cc(C(=O)N[C@H](c4ccc(O)cc4)C(F)(F)F)ccc3C2=O)C(=O)N1 (stereo partly drawn) [Example 101, 2-(2,6-dioxopiperidin-3-yl)-1-oxo-N-((R)-2,2,2-trifluoro-1-(4-hydroxyphenyl)ethyl)isoindoline-5-carboxamide] | < 100 | * (a Y value (shown as *) of 0<Y≤20%) |
| CC(C)Oc1cccc([C@@H](NC(=O)c2ccc3c(c2)CN(C2CCC(=O)NC2=O)C3=O)C(F)(F)F)c1 (stereo partly drawn) [Example 102, 2-(2,6-dioxopiperidin-3-yl)-1-oxo-N-((R)-2,2,2-trifluoro-1-(3-isopropoxyphenyl)ethyl)isoindoline-5-carboxamide] | < 100 | ** (a Y value (shown as**) of 20%<Y≤35%) |
| O=C1CC[C@H](N2Cc3cc(C(=O)N[C@H](c4ccc(F)cc4)C(F)(F)F)ccc3C2=O)C(=O)N1 [Example 103, 2-((S)-2,6-dioxopiperidin-3-yl)-1-oxo-N-((R)-2,2,2-trifluoro-1-(4-fluorophenyl)ethyl)isoindoline-5-carboxamide] | < 100 | * (a Y value (shown as *) of 0<Y≤20%) |
| O=C1CC[C@@H](N2Cc3cc(C(=O)N[C@H](c4ccc(F)cc4)C(F)(F)F)ccc3C2=O)C(=O)N1 [Example 104, 2-((R)-2,6-dioxopiperidin-3-yl)-1-oxo-N-((R)-2,2,2-trifluoro-1-(4-fluorophenyl)ethyl)isoindoline-5-carboxamide] | < 100 | * (a Y value (shown as *) of 0<Y≤20%) |
| O=C1CCC(N2Cc3c(ccc(C(=O)N[C@H](c4ccc(F)cc4F)C(F)(F)F)c3F)C2=O)C(=O)N1 (stereo partly drawn) [Example 105, N-((R)-1-(2,4-difluorophenyl)-2,2,2-trifluoroethyl)-2-(2,6-dioxopiperidin-3-yl)-4-fluoro-1-oxoisoindoline-5-carboxamide] | < 100 | * (a Y value (shown as *) of 0<Y≤20%) |
| O=C1CCC(N2Cc3cc(C(=O)N[C@H](c4ncccc4Cl)C(F)(F)F)ccc3C2=O)C(=O)N1 (stereo partly drawn) [Example 106, N-((R)-1-(3-chloropyridin-2-yl)-2,2,2-trifluoroethyl)-2-(2,6-dioxopiperidin-3-yl)-1-oxoisoindoline-5-carboxamide] | < 100 | * (a Y value (shown as *) of 0<Y≤20%) |
| O=C1CCC(N2Cc3c(ccc(C(=O)N[C@H](c4cccc(Cl)c4)C(F)(F)F)c3F)C2=O)C(=O)N1 (stereo partly drawn) [Example 107, N-((R)-1-(3-chlorophenyl)-2,2,2-trifluoroethyl)-2-(2,6-dioxopiperidin-3-yl)-4-fluoro-1-oxoisoindoline-5-carboxamide] | 100 to 500 | ** (a Y value (shown as**) of 20%<Y≤35%) |
| O=C1CCC(N2Cc3c(ccc(C(=O)N[C@H](c4cccc(F)c4)C(F)(F)F)c3F)C2=O)C(=O)N1 (stereo partly drawn) [Example 108, 2-(2,6-dioxopiperidin-3-yl)-4-fluoro-1-oxo-N-((R)-2,2,2-trifluoro-1-(3-fluorophenyl)ethyl)isoindoline-5-carboxamide] | 100 to 500 | ** (a Y value (shown as**) of 20%<Y≤35%) |
| O=C1CCC(N2Cc3cc(C(=O)N[C@H](c4ccc(Cl)cn4)C(F)(F)F)ccc3C2=O)C(=O)N1 (stereo partly drawn) [Example 109, N-((R)-1-(5-chloropyridin-2-yl)-2,2,2-trifluoroethyl)-2-(2,6-dioxopiperidin-3-yl)-1-oxoisoindoline-5-carboxamide] | < 100 | * (a Y value (shown as *) of 0<Y≤20%) |
| O=C1CCC(N2Cc3cc(C(=O)N[C@H](c4ncccc4F)C(F)(F)F)ccc3C2=O)C(=O)N1 (stereo partly drawn) [Example 110, 2-(2,6-dioxopiperidin-3-yl)-1-oxo-N-((R)-2,2,2-trifluoro-1-(3-fluoropyridin-2-yl)ethyl)isoindoline-5-carboxamide] | < 100 | * (a Y value (shown as *) of 0<Y≤20%) |
| O=C1CCC(N2Cc3cc(C(=O)N[C@H](c4ccc(F)cc4)C(F)F)ccc3C2=O)C(=O)N1 (stereo partly drawn) [Example 111, N-((R)-2,2-difluoro-1-(4-fluorophenyl)ethyl)-2-(2,6-dioxopiperidin-3-yl)-1-oxoisoindoline-5-carboxamide] | < 100 | * (a Y value (shown as *) of 0<Y≤20%) |
| O=C1CCC(N2Cc3c(ccc(C(=O)N[C@H](c4ccc(F)cc4)C(F)F)c3F)C2=O)C(=O)N1 (stereo partly drawn) [Example 112, N-((R)-2,2-difluoro-1-(4-fluorophenyl)ethyl)-2-(2,6-dioxopiperidin-3-yl)-4-fluoro-1-oxoisoindoline-5-carboxamide] | < 100 | * (a Y value (shown as *) of 0<Y≤20%) |
| O=C1CCC(N2Cc3c(ccc(C(=O)N[C@H](c4ccc(F)c(F)c4)C(F)(F)F)c3F)C2=O)C(=O)N1 (stereo partly drawn) [Example 113, N-((R)-1-(3,4-difluorophenyl)-2,2,2-trifluoroethyl)-2-(2,6-dioxopiperidin-3-yl)-4-fluoro-1-oxoisoindoline-5-carboxamide] | 100 to 500 | ** (a Y value (shown as**) of 20%<Y≤35%) |
| O=C1CCC(N2Cc3c(ccc(C(=O)N[C@H](c4ccccc4Cl)C(F)(F)F)c3F)C2=O)C(=O)N1 (stereo partly drawn) [Example 114, N-((R)-1-(2-chlorophenyl)-2,2,2-trifluoroethyl)-2-(2,6-dioxopiperidin-3-yl)-4-fluoro-1-oxoisoindoline-5-carboxamide] | < 100 | * (a Y value (shown as *) of 0<Y≤20%) |
| O=C1CCC(N2Cc3c(ccc(C(=O)N[C@H](c4ccc(F)cn4)C(F)(F)F)c3F)C2=O)C(=O)N1 (stereo partly drawn) [Example 115, 2-(2,6-dioxopiperidin-3-yl)-4-fluoro-1-oxo-N-((R)-2,2,2-trifluoro-1-(5-fluoropyridin-2-yl)ethyl)isoindoline-5-carboxamide] | 100 to 500 | ** (a Y value (shown as**) of 20%<Y≤35%) |
| O=C1CCC(N2Cc3cc(C(=O)N[C@H](c4ncccc4C(F)(F)F)C(F)(F)F)ccc3C2=O)C(=O)N1 (stereo partly drawn) [Example 116, 2-(2,6-dioxopiperidin-3-yl)-1-oxo-N-((R)-2,2,2-trifluoro-1-(3-(trifluoromethyl)pyridin-2-yl)ethyl)isoindoline-5-carboxamide] | 100 to 500 | ** (a Y value (shown as**) of 20%<Y≤35%) |
| O=C1CCC(N2Cc3c(ccc(C(=O)N[C@H](c4ncccc4F)C(F)(F)F)c3F)C2=O)C(=O)N1 (stereo partly drawn) [Example 117, 2-(2,6-dioxopiperidin-3-yl)-4-fluoro-1-oxo-N-((R)-2,2,2-trifluoro-1-(3-fluoropyridin-2-yl)ethyl)isoindoline-5-carboxamide] | 100 to 500 | ** (a Y value (shown as**) of 20%<Y≤35%) |
| CC[C@@H](NC(=O)c1ccc2c(c1)CN(C1CCC(=O)NC1=O)C2=O)c1ccccc1 (stereo partly shown) [Example 118] | 100 to 500 | ** (a Y value (shown as**) of 20%<Y≤35%) |
| O=C1CCC(N2Cc3cc(C(=O)N[C@H](c4cc(C(F)(F)F)ccn4)C(F)(F)F)ccc3C2=O)C(=O)N1 (stereo partly drawn) [Example 119, 2-(2,6-dioxopiperidin-3-yl)-1-oxo-N-((R)-2,2,2-trifluoro-1-(4-(trifluoromethyl)pyridin-2-yl)ethyl)isoindoline-5-carboxamide] | < 100 | ** (a Y value (shown as**) of 20%<Y≤35%) |
| O=C1CCC(N2Cc3c(ccc(C(=O)N[C@H](c4cccc(OC(F)(F)F)c4)C(F)(F)F)c3F)C2=O)C(=O)N1 (stereo partly drawn) [Example 120, 2-(2,6-dioxopiperidin-3-yl)-4-fluoro-1-oxo-N-((R)-2,2,2-trifluoro-1-(3-(trifluoromethoxy)phenyl)ethyl)isoindoline-5-carboxamide] | 100 to 500 | ** (a Y value (shown as**) of 20%<Y≤35%) |
| O=C1CCC(N2Cc3c(ccc(C(=O)N[C@H](C4CCCCC4)C(F)(F)F)c3F)C2=O)C(=O)N1 (stereo partly drawn) [Example 121, N-((R)-1-cyclohexyl-2,2,2-trifluoroethyl)-2-(2,6-dioxopiperidin-3-yl)-4-fluoro-1-oxoisoindoline-5-carboxamide] | < 100 | * (a Y value (shown as *) of 0<Y≤20%) |
| O=C1CCC(N2Cc3cc(C(=O)N[C@H](c4cccc(OC5CC5)c4)C(F)(F)F)ccc3C2=O)C(=O)N1 (stereo partly drawn) [Example 122, N-((R)-1-(3-cyclopropoxyphenyl)-2,2,2-trifluoroethyl)-2-(2,6-dioxopiperidin-3-yl)-1-oxoisoindoline-5-carboxamide] | < 100 | * (a Y value (shown as *) of 0<Y≤20%) |
| O=C1CCC(N2Cc3cc(C(=O)N[C@@H](CC(F)(F)F)c4ccc(F)cc4)ccc3C2=O)C(=O)N1 (stereo partly drawn) [Example 123, 2-(2,6-dioxopiperidin-3-yl)-1-oxo-N-((S)-3,3,3-trifluoro-1-(4-fluorophenyl)propyl)isoindoline-5-carboxamide] | 100 to 500 | ** (a Y value (shown as**) of 20%<Y≤35%) |
